21 compounds from patent US11141403B2, “Benzimidazoles and indoles as taro inhibitors” (MERCK SHARP & DOHME CORP., priority 2015, dated 2021) can be followed below.

Where two headings read alike, the source gives them in different places.

For this assay, the system named is MRSA COL (MB5393). The assay is described as follows: TarO Inhibitor/β-Lactam Synergy Assay. Type of assay: cell-based, Staphylococcus aureus. The conditions noted are these: 20 hours; for IC95: TarO inhibitor alone, OD600, 95% growth inhibition, read-out: MITC95 TarO inhibitor alone, Bacteria: SA_MB5393; for MITC95 TarO inhibitor + 4 μg/mL IPM; Bacteria: SA_MB5393: in combination with 4 μg/mL imipenem; for MITC95 TarO inhibitor + 4 μg/mL IPM; Bacteria: SA_MB5393 / MITC95 TarO inhibitor + 8 μg/mL DCX; Bacteria: SA_MB5393: OD600; for MITC95 TarO inhibitor + 8 μg/mL DCX; Bacteria: SA_MB5393: in combination with 8 μg/mL dicloxacillin. The procedure:
The TarO inhibitor/β-lactam synergy assay was performed to measure the re-sensitization of methicillin-resistant Staphylococci bacteria (MB5393: MRSA COL) to β-lactam antibiotics by TarO inhibitors. MRSA COL is a hospital-acquired penicillinase-negative clinically isolated strain commonly used in Staphylococcus aureus studies and is fully resistant to the antimicrobial bioactivity of β-lactam antibiotics, including but not limited to imipenem and dicloxacillin. […] MRSA COL is fully refractory to β-lactam antibiotic effect at the current clinical breakpoint concentrations and as such MRSA COL is fully viable at these concentrations.
The β-lactam antibiotic concentration was fixed at the clinical breakpoint (imipenem 4 μg/ml or dicloxacillin 8 μg/ml) and the TarO inhibitors were titrated by 2 fold starting from the highest concentration of 200 μM with final DMSO concentration of 2% in the assay. 5×10^5 colony forming unit of MRSA COL in cation-adjusted Mueller Hinton broth (CAMHB) was then mixed and the assay plate was incubated for 20 hours at 37° C. without shaking. After 20 hours, the optical density at 600 nm (OD600) was read for all wells to determine relative growth of MRSA COL.

As for `CCN(C(=O)CCn1c(N2CCC[C@H](NC(=O)OC(C)(C)C)C2)nc2ccccc21)C1CCCCC1` [Example 59, tert-butyl [(3S)-1-(1-{3-[cyclohexyl(ethyl)amino]-3-oxopropyl}-1H-benzimidazol-2-yl)piperidin-3-yl]carbamate], the “MITC95 TarO inhibitor + 4 μg/mL IPM; Bacteria: SA_MB5393” value (“MITC95 TarO inhibitor + 4 μg/mL IPM” for short) stood at 50 µM and the “MITC95 TarO inhibitor + 8 μg/mL DCX; Bacteria: SA_MB5393” value (from here on “MITC95 TarO inhibitor + 8 μg/mL DCX”) came out at 150 µM. Also, the IC95 (Staphylococcus aureus) was > 200 µM.

As to `CCN(C(=O)CCn1c2cc(Br)ccc2nc1[C@H]1CC[C@H](CC)CC1)C1CCCCC1` [Example 8, 3-[6-bromo-2-(trans-4-ethylcyclohexyl)-1H-benzimidazol-1-yl]-N-cyclohexyl-N-ethylpropanamide], the “MITC95 TarO inhibitor + 4 μg/mL IPM” value was determined as 0.06 µM and the “MITC95 TarO inhibitor + 8 μg/mL DCX” value is 0.22 µM. Also, the IC95 (Staphylococcus aureus) was > 200 µM.

For `CC1(C)[C@@H]2CC[C@@]1(C)[C@H](NC(=O)CCn1c3ccccc3nc1[C@H]1CC[C@@H](C(C)(C)C)CC1)C2` [Example 33, 3-[2-(cis-4-tert-butylcyclohexyl)-1H-benzimidazol-1-yl]-N-[(1R,2R,4R)-1,7,7-trimethylbicyclo[2.2.1]hept-2-yl]propanamide], the “MITC95 TarO inhibitor + 4 μg/mL IPM” value worked out at 0.06 µM. For the same compound, for the setting “Staphylococcus aureus”, the IC95 was > 200 µM.

Regarding `CCOC(=O)N1CCCC(c2nc3cc(F)ccc3n2CCC(=O)N(CC)C2CCCCC2)C1` (stereo not shown) [Example 13, Ethyl 3-(1-{3-[cyclohexyl(ethyl)amino]-3-oxopropyl}-5-fluoro-1H-benzimidazol-2-yl)piperidine-1-carboxylate], the “MITC95 TarO inhibitor + 4 μg/mL IPM” value came to 0.35 µM and the “MITC95 TarO inhibitor + 8 μg/mL DCX” value is 2.19 µM. Further, the IC95 (Staphylococcus aureus) is > 200 µM.

For the compound `CCCOC(=O)N1CC(c2nc3ccccc3n2CCC(=O)N(CC)C2CCCCC2)CCC1C` (stereo not shown) [Example 49, propyl 5-(1-{3-[cyclohexyl(ethyl)amino]-3-oxopropyl}-1H-benzimidazol-2-yl)-2-methylpiperidine-1-carboxylate], the “MITC95 TarO inhibitor + 4 μg/mL IPM” value was determined as 0.78 µM and the “MITC95 TarO inhibitor + 8 μg/mL DCX” value came to 6.25 µM. In addition, where the note is “Staphylococcus aureus”, the IC95 was found to be 100 µM.

In the case of `CCc1nsc(N2CCCC(c3nc4ccccc4n3CCC(=O)N(CC)C3CCCCC3)C2)n1` (stereo not shown) [Example 46, N-cyclohexyl-N-ethyl-3-{2-[1-(3-ethyl-1,2,4-thiadiazol-5-yl)piperidin-3-yl]-1H-benzimidazol-1-yl}propanamide], the “MITC95 TarO inhibitor + 4 μg/mL IPM” value turned out to be 1.56 µM and the “MITC95 TarO inhibitor + 8 μg/mL DCX” value worked out at 6.25 µM. The IC95 (Staphylococcus aureus) turned out to be 100 µM.

Consider `CCN(C(=O)CCn1c2ccc(OC)cc2nc1[C@H]1CC[C@H](CC)CC1)C1CCCCC1` [Example 16, N-cyclohexyl-N-ethyl-3-[2-(trans-4-ethylcyclohexyl)-5-methoxy-1H-benzimidazol-1-yl]propanamide], for which the “MITC95 TarO inhibitor + 4 μg/mL IPM” value is 1.04 µM and the “MITC95 TarO inhibitor + 8 μg/mL DCX” value amounted to 14.58 µM. Also, the IC95 (Staphylococcus aureus) was > 200 µM.

As to `CC(C)(C)OC(=O)N1CCC(c2nc3ccccc3n2CCC(=O)NC2C[C@H]3CC[C@]2(C)C3(C)C)C1` (stereo partly drawn) [Example 41, tert-butyl 3-[1-(3-oxo-3-{[(1R,4R)-1,7,7-trimethylbicyclo[2.2.1]hept-2-yl]amino}propyl)-1H-benzimidazol-2-yl]pyrrolidine-1-carboxylate], the “MITC95 TarO inhibitor + 4 μg/mL IPM” value is 5.47 µM and the “MITC95 TarO inhibitor + 8 μg/mL DCX” value came to 37.50 µM. For the same compound, the IC95 (Staphylococcus aureus) was > 200 µM.

Turning to `CCN(C(=O)CCn1c(CN2CCC(C(C)(C)C)CC2)nc2ccccc21)C1CCCCC1` [Example 60, 3-{2-[(4-tert-butylpiperidin-1-yl)methyl]-1H-benzimidazol-1-yl}-N-cyclohexyl-N-ethylpropanamide], the “MITC95 TarO inhibitor + 4 μg/mL IPM” value worked out at 0.78 µM and the “MITC95 TarO inhibitor + 8 μg/mL DCX” value is 6.25 µM. For the setting “Staphylococcus aureus”, the IC95 was > 200 µM.

For `CCN(C(=O)CCn1c(C2CCCN(c3ccccn3)C2)nc2ccccc21)C1CCCCC1` (stereo not shown) [Example 48, N-cyclohexyl-N-ethyl-3-[2-(1-pyridin-2-ylpiperidin-3-yl)-1H-benzimidazol-1-yl]propanamide], the “MITC95 TarO inhibitor + 4 μg/mL IPM” value is 1.56 µM and the “MITC95 TarO inhibitor + 8 μg/mL DCX” value came to 50 µM. Moreover, the IC95 (Staphylococcus aureus) is > 200 µM.

As to `CCN(C(=O)CCn1c(C2CCCN(C(=O)OC(C)(C)C)C2)nc2cc(F)ccc21)C1CCCCC1` (stereo not shown) [Example 12, tert-butyl 3-(1-{3-[cyclohexyl(ethyl)amino]-3-oxopropyl}-5-fluoro-1H-benzimidazol-2-yl)piperidine-1-carboxylate], the “MITC95 TarO inhibitor + 4 μg/mL IPM” value turned out to be 0.50 µM and the “MITC95 TarO inhibitor + 8 μg/mL DCX” value was found to be 1.09 µM. The IC95 (Staphylococcus aureus) was > 200 µM.

As for `CCN(C(=O)CCn1c(C2CCC(C)N(c3cccc(OC)n3)C2)nc2ccccc21)C1CCCCC1` (stereo not shown) [Example 44, N-cyclohexyl-N-ethyl-3-{2-[1-(6-methoxypyridin-2-yl)-6-methylpiperidin-3-yl]-1H-benzimidazol-1-yl}propanamide], the “MITC95 TarO inhibitor + 4 μg/mL IPM” value was 0.10 µM and the “MITC95 TarO inhibitor + 8 μg/mL DCX” value worked out at 0.20 µM. Besides, for the setting “Staphylococcus aureus”, the IC95 turned out to be 100 µM.

For `CCC1CCN(Cc2nc3ccccc3n2CCC(=O)N(CC)C2CCCCC2)CC1` [Example 62, N-cyclohexyl-N-ethyl-3-{2-[(4-ethylpiperidin-1-yl)methyl]-1H-benzimidazol-1-yl}propanamide], the “MITC95 TarO inhibitor + 4 μg/mL IPM” value is 6.25 µM and the “MITC95 TarO inhibitor + 8 μg/mL DCX” value was found to be 25 µM. In addition, the IC95 (Staphylococcus aureus) was > 200 µM.

Turning to `CCN(C(=O)CCn1c(C2CCCN(C(=O)OC(C)(C)C)C2)nc2cc(F)ccc21)C1CCCCC1` (stereo not shown) [Example 15, tert-butyl 3-(1-{3-[cyclohexyl(ethyl)amino]-3-oxopropyl}-5-fluoro-1H-benzimidazol-2-yl)piperidine-1-carboxylate], the IC95 was >200 µM, the “MITC95 TarO inhibitor + 4 μg/mL IPM” value came out at 0.52 µM and the “MITC95 TarO inhibitor + 8 μg/mL DCX” value was 4.17 µM.

As to `CCN(C(=O)CCn1c2cc(F)ccc2nc1[C@H]1CC[C@H](CC)CC1)C1CCCCC1` [Example 6, N-cyclohexyl-N-ethyl-3-(2-(trans-4-ethvlcyclohexyl)-6-fluoro-1H-benzo[d]imidazol-1-yl)propanamide], the “MITC95 TarO inhibitor + 4 μg/mL IPM” value came out at 0.13 µM and the “MITC95 TarO inhibitor + 8 μg/mL DCX” value stood at 0.59 µM. Further, where the note is “Staphylococcus aureus”, the IC95 is > 200 µM.

As for `CCN(C(=O)CCn1c(C2CCCN(C(=O)OC(C)C)C2)nc2ccccc21)C1CCCCC1` (stereo not shown) [Example 53, 1-methylethyl 3-(1-{3-[cyclohexyl(ethyl)amino]-3-oxopropyl}-1H-benzimidazol-2-yl)piperidine-1-carboxylate], the “MITC95 TarO inhibitor + 4 μg/mL IPM” value is 1.56 µM and the “MITC95 TarO inhibitor + 8 μg/mL DCX” value was determined as 6.25 µM. Besides, the IC95 (Staphylococcus aureus) was 100 µM.

On to `CCN(C(=O)CCn1c(C2CCCCC2)cc2ccccc21)C1CCCCC1` [Example 64, N-cyclohexyl-3-(2-cyclohexyl-1H-indol-1-yl)-N-ethylpropanamide], for which the “MITC95 TarO inhibitor + 4 μg/mL IPM” value was found to be 6.20 µM. The IC95 (Staphylococcus aureus) is > 200 µM.

Take `CCOc1ccc(-c2nc3ccccc3n2CCC(=O)N(CC)C2CCCCC2)cn1` [Example 38, N-cyclohexyl-3-[2-(6-ethoxypyridin-3-yl)-1H-benzimidazol-1-yl]-N-ethylpropanamide]: the “MITC95 TarO inhibitor + 4 μg/mL IPM” value worked out at 2.08 µM and the “MITC95 TarO inhibitor + 8 μg/mL DCX” value was found to be 12.50 µM. For the setting “Staphylococcus aureus”, the IC95 is > 200 µM.

On to `CCN(C(=O)CCn1c(C2CCCN(c3nccc(OC)n3)C2)nc2ccccc21)C1CCCCC1` (stereo not shown) [Example 43, N-cyclohexyl-N-ethyl-3-(2-(1-(4-methoxypyrimidin-2-yl)piperidin-3-yl)-1H-benzo[d]imidazol-1-yl)propanamide], for which the “MITC95 TarO inhibitor + 4 μg/mL IPM” value is 0.20 µM and the “MITC95 TarO inhibitor + 8 μg/mL DCX” value worked out at 0.78 µM. The IC95 (Staphylococcus aureus) is 100 µM.

In the case of `CCN(C(=O)CCn1c2cc(-c3cnn(C)c3)ccc2nc1[C@H]1CC[C@H](CC)CC1)C1CCCCC1` [Example 25, N-cyclohexyl-N-ethyl-3-[2-(trans-4-ethylcyclohexyl)-6-(1-methyl-1H-pyrazol-4-yl)-1H-benzimidazol-1-yl]propanamide], the “MITC95 TarO inhibitor + 4 μg/mL IPM” value amounted to 0.38 µM and the “MITC95 TarO inhibitor + 8 μg/mL DCX” value is 1.30 µM. The IC95 (Staphylococcus aureus) is > 200 µM.

In the case of `CCN(C(=O)CCn1c(-c2ccc(C(=O)OC)cc2)nc2ccccc21)C1CCCCC1` [Example 36, methyl 4-(1-{3-[cyclohexyl(ethyl)amino]-3-oxopropyl}-1H-benzimidazol-2-yl)benzoate], the “MITC95 TarO inhibitor + 4 μg/mL IPM” value amounted to 0.68 µM and the “MITC95 TarO inhibitor + 8 μg/mL DCX” value was 3.91 µM. Moreover, the IC95 (Staphylococcus aureus) was > 200 µM.
